What is called IC50 is the concentration needed to halve the response being measured. As usually defined, the CC50 is the concentration at which the toxic effect on the cells reaches its halfway point.

The text below walks through data of ChEMBL document CHEMBL1151567, “Synthesis and anti HIV-1 activity of new thiadiazepindioxides” (Bioorg Med Chem Lett, 1995).

Some results are limits rather than exact numbers.

The subject of assay [1] is C8166. The assay is described as follows: Antiviral activity was evaluated by inhibition of HIV-1 replication in CD4+ lymphoblastoid cell line infected with HIV/IIIB strain. It counts as functional, cell-based. The following applies: Homo sapiens.
In assay [2] the test system is C8166. Kind of assay: Ratio of CC50 to that of IC50 was determined. In kind it is functional.
In assay [3] the test system is C8166. Kind of assay: Cytotoxic activity was evaluated in CD4+ lymphoblastoid cell line. The following applies: Homo sapiens. In kind it is functional.

`CCN1c2ccccc2S(=O)(=O)N(C)c2cccnc21` registered a 50% inhibitory concentration (IC50) in the assay on C8166 [1] above 300000 nM.
For the molecule `CCN1C=CC=C2C1=Nc1cc(Cl)c(C)cc1S(=O)(=O)N2C`, the IC50 in the assay on C8166 [1] is 280 nM. In the assay with C8166 [2], the Selectivity index worked out at 42. The molecule further displayed a CC50 in the assay with C8166 [3] of 12 µM.
The like results for `CCN1c2cc(Cl)c(C)cc2S(=O)(=O)N(C)c2cccnc21` were, in that order, 48000 nM, above 1 and above 60 µM.
In the same order, the values of `Cc1ccnc2c1NC(=O)c1cccnc1N2C1CC1` [NEVIRAPINE] are 40 nM, 8025 and 321 µM.
`Cc1cc2c(cc1C)N(C)S(=O)(=O)c1cccnc1N2C(C)C` displayed a half-inhibitory concentration (IC50) in the assay on C8166 [1] of 32 nM. Also, in the assay on C8166 [2], the Selectivity index was above 1875. This molecule returned a CC50 in the assay with C8166 [3] above 60 µM.
In the same order, the values of `Cc1cc2c(cc1C)N(C)S(=O)(=O)C1=CC=CN(C(C)C)C1=N2` are 600 nM, above 50 and above 30 µM.
In turn, `Cc1cc2c(cc1C)N(C)S(=O)(=O)c1cccnc1N2` registered an IC50 in the assay with C8166 [1] of 4000 nM. Besides, in the assay with C8166 [2], the Selectivity index is listed as above 31. For the same molecule, the CC50 with C8166 [3] is above 125 µM.
In the assay on C8166 [1], `CCN1c2cc(C)c(C)cc2N(C)S(=O)(=O)c2cccnc21` came in with a half-inhibitory concentration (IC50) of 40 nM. Also, in the assay with C8166 [2], the Selectivity index came to 3750. Moreover, half-maximal cytotoxicity in the assay with C8166 [3] (CC50) was put at 150 µM.
`Cc1cn([C@H]2C[C@H](N=[N+]=[N-])[C@@H](CO)O2)c(=O)[nH]c1=O` [ZIDOVUDINE]: the 50% inhibitory concentration (IC50) in the assay with C8166 [1] stood at 4 nM. Besides, the Selectivity index with C8166 [2] came out at 350000. This molecule displayed a CC50 in the assay on C8166 [3] of 1400 µM.
The like results for `CCN1c2ncccc2N(C)S(=O)(=O)c2cccnc21` were, in that order, above 300000 nM, below 1 and 300 µM.
Consider `O=c1[nH]cnc2c1ncn2[C@H]1CC[C@@H](CO)O1` [DIDANOSINE], for which the IC50 with C8166 [1] came out at 1000 nM. Also, in the assay with C8166 [2], the Selectivity index is listed as 9000. For the same molecule, in the assay on C8166 [3], the CC50 came out at 9000 µM.
Molecule `CCN1C=CC=C2C1=Nc1ccccc1S(=O)(=O)N2C` showed an IC50 in the assay with C8166 [1] of 3700 nM. In the assay with C8166 [2], the Selectivity index was 22. Further, in the assay on C8166 [3], the half-maximal cytotoxic concentration (CC50) came out at 80 µM.
As for `CC(C)=CCN1Cc2cc(Cl)cc3[nH]c(=S)n(c23)C[C@@H]1C`, in the assay on C8166 [1], the concentration for half-maximal inhibition (IC50) was determined as 1.5 nM. Moreover, the Selectivity index in the assay with C8166 [2] stood at 22600. In addition, in the assay on C8166 [3], it took 34 µM to reach half-maximal cytotoxicity (CC50).
The like results for `CN1c2cccnc2Nc2ncccc2S1(=O)=O` were, in that order, 7000 nM, above 17 and above 125 µM.
`CCN1C=CC=C2C1=Nc1cc(C)c(C)cc1N(C)S2(=O)=O` came in with an IC50 with C8166 [1] of 330 nM. For the same molecule, the Selectivity index in the assay on C8166 [2] is above 90. The CC50 in the assay with C8166 [3] is above 30 µM.
As to `Cc1cc2c(cc1Cl)Nc1ncccc1N(C)S2(=O)=O`, in the assay with C8166 [1], the 50% inhibitory concentration (IC50) was above 300000 nM.
On the same count and under the same terms, under `CN1c2cccnc2Nc2ccccc2S1(=O)=O` stands above 300000 nM.
